Experimental data reported in ChEMBL document CHEMBL5126521, “Analgesic Opioid Ligand Discovery Based on Nonmorphinan Scaffolds Derived from Natural Sources” (J Med Chem, 2022).

Experiments:
[1] = Stability in rat brain homogenate assessed as compound remaining measured after 90 mins relative to control; assay type: ADME, tissue-based; details: read-out: Stability
Mu-type opioid receptor [2] = target: Mu-type opioid receptor (Cavia porcellus, UniProt P97266); assay: Antagonist activity at guinea pig ileum MOP; assay type: functional, tissue-based
Sequence of Mu-type opioid receptor (Cavia porcellus, UniProt P97266) (P97266 whole entry): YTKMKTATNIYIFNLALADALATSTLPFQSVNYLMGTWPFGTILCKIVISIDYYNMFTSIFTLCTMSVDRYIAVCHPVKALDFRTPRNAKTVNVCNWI

Mus musculus [3] = assay: Antinociceptive activity in mouse administered icv; assay type: functional
Mu-type opioid receptor [4] = target: T1, Mu-type opioid receptor (Homo sapiens, UniProt P35372); assay: Agonist activity at human recombinant MOP expressed in CHO cells by calcium mobilization assay; assay type: functional, cell-based
T1 sequence (P35372 whole entry): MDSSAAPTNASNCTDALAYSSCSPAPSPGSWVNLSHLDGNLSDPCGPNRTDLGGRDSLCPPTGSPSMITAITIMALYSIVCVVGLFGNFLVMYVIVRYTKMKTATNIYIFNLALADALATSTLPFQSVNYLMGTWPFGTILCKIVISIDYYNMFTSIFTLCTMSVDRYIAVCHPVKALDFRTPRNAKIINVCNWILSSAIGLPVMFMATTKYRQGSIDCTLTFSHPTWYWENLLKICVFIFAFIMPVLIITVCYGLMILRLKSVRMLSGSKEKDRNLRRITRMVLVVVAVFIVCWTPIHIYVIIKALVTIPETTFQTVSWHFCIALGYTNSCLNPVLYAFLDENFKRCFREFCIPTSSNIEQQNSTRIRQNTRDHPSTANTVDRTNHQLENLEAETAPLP

Mus musculus [5] = assay: Antinociceptive activity in Swiss albino mouse assessed tail flick response in warm water administered icv; assay type: functional
[6] = target: Delta-type opioid receptor (Rattus norvegicus, UniProt P33533); assay: Inhibition of Wistar rat brain membrane DOP; assay type: cell membranes
Sequence of Delta-type opioid receptor (Rattus norvegicus, UniProt P33533) (P33533 whole entry): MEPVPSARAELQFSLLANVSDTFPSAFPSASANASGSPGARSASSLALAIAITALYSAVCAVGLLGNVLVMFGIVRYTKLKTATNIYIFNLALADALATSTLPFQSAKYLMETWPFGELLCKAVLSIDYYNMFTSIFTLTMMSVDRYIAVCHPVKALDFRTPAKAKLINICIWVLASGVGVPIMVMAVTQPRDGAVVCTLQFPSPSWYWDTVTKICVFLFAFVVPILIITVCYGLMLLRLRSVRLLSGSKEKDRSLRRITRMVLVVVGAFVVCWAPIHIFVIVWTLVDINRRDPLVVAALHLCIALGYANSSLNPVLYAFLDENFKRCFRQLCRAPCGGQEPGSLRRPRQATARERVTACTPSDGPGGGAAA

Mu-type opioid receptor [7] = target: Mu-type opioid receptor (Rattus norvegicus, UniProt P33535); assay: Inhibition of Wistar rat brain membrane MOP; assay type: cell membranes
Sequence of Mu-type opioid receptor (Rattus norvegicus, UniProt P33535) (P33535 whole entry): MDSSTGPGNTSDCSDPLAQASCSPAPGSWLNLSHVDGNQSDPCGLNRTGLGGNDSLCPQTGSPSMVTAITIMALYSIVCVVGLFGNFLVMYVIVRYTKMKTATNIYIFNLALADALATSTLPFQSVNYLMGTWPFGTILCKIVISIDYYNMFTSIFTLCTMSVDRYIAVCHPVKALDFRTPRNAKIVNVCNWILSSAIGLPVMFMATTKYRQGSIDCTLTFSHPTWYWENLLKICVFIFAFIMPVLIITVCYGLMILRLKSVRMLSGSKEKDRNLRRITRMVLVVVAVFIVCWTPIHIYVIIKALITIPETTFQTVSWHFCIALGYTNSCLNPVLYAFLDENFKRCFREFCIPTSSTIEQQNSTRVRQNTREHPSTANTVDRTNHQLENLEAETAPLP

Rattus norvegicus = assay: Antinociceptive activity in rat administered icv by tail pressure test relative to control; assay type: functional; design: concentration or dose not given beside the values
Mu-type opioid receptor [8] = target: T1, Mu-type opioid receptor; assay: Binding affinity to MOP (unknown origin)
[9] = target: T2, Delta-type opioid receptor (Homo sapiens, UniProt P41143); assay: Binding affinity to DOP (unknown origin)
T2 sequence (P41143 whole entry): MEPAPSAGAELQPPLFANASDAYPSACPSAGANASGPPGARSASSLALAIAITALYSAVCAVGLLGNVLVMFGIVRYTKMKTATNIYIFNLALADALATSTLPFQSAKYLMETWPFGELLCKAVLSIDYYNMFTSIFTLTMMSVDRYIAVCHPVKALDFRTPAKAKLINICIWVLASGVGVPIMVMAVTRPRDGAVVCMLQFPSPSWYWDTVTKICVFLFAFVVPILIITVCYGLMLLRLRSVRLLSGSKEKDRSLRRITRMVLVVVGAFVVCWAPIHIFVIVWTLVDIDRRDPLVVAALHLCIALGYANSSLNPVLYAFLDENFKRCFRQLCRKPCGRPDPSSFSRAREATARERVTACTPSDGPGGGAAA

Mu-type opioid receptor [10] = target: Mu-type opioid receptor (Mus musculus, UniProt P42866); assay: Antagonist activity at mouse vas deferns MOP; assay type: functional
Sequence of Mu-type opioid receptor (Mus musculus, UniProt P42866) (P42866 whole entry): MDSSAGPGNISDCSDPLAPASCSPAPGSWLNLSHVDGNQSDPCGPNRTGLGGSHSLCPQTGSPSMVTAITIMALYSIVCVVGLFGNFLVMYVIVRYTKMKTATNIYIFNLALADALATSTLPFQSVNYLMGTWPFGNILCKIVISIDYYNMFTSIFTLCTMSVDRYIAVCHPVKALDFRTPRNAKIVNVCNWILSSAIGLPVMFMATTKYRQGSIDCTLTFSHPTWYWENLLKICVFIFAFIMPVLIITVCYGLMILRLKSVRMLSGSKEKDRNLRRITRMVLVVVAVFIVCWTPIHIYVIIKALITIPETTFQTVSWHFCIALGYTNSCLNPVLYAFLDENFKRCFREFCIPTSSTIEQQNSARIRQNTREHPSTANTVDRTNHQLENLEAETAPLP

[11] = Stability in mouse serum assessed as half life; assay type: ADME, cell-free
[12] = Stability in mouse brain homogenate assessed as half life; assay type: ADME, tissue-based
Mu-type opioid receptor [13] = target: T1, Mu-type opioid receptor; assay: Displacement of [3H]DAMGO from MOP (unknown origin) stably expressed in HEK293 cells by liquid scintillation counter analysis; assay type: cell-based
[14] = target: T2, Delta-type opioid receptor; assay: Displacement of [3H]DPDPE from DOP (unknown origin) stably expressed in HEK293 cells by liquid scintillation counter analysis; assay type: cell-based
Mu-type opioid receptor [15] = target: T1, Mu-type opioid receptor; assay: Agonist activity at MOP (unknown origin) stably expressed in HEK293 cells assessed as forskolin stimulated cAMP accumulation incubated for 30 mins by radioactivity based scintillation counter analysis; assay type: functional, cell-based
Mu-type opioid receptor [16] = target: T1, Mu-type opioid receptor; assay: Agonist activity at MOP (unknown origin) stably expressed in HEK293 cells assessed as forskolin stimulated cAMP accumulation incubated for 30 mins by radioactivity based scintillation counter analysis relative to control; assay type: functional, cell-based; details: filed as agonist

NC(=O)[C@@H]1CC(=O)NCCCC[C@@H](NC(=O)[C@@H](N)Cc2ccc(O)cc2)C(=O)N[C@@H](c2ccc(F)cc2)C(=O)N[C@@H](c2ccccc2)C(=O)N1
remaining at […] [1]: 93%

NC(=O)[C@@H]1CC(=O)NCCCC[C@@H](NC(=O)[C@@H](N)Cc2ccc(O)cc2)C(=O)N[C@@H](c2ccc(C(F)(F)F)cc2)C(=O)N[C@@H](c2ccccc2)C(=O)N1
remaining at […] [1]: 93%

N=C(N)NCCC[C@@H](NC(=O)[C@@H](N)Cc1ccc(O)cc1)C(N)=O
IC50 (Mu-type opioid receptor [2]): 44000 nM | ED50 (Mus musculus [3]): 47000 pmol

Cc1cccc([C@@H]2NC(=O)[C@H](c3ccccc3)NC(=O)[C@H](NC(=O)[C@@H](N)Cc3c(C)cc(O)cc3C)CCCCNC(=O)C[C@@H](C(N)=O)NC2=O)c1
EC50 (Mu-type opioid receptor [4]): 1.1 nM | ED50 (Mus musculus [5]): 0.01 µg | IC50 [6]: 18.6 nM | IC50 (Mu-type opioid receptor [7]): 0.08 nM | remaining at […] [1]: 85%

Cc1cc(O)cc(C)c1C[C@H](N)C(=O)N[C@@H]1CCCCNC(=O)C[C@@H](C(N)=O)NC(=O)[C@H](c2ccccc2)NC(=O)[C@H](c2ccc(C(F)(F)F)cc2)NC1=O
remaining at […] [1]: 93%

Cc1ccc([C@@H]2NC(=O)[C@H](c3ccccc3)NC(=O)[C@H](NC(=O)[C@@H](N)Cc3c(C)cc(O)cc3C)CCCCNC(=O)C[C@@H](C(N)=O)NC2=O)cc1
EC50 (Mu-type opioid receptor [4]): 7.76 nM | ED50 (Mus musculus [5]): 0.006 µg | IC50 [6]: 14.9 nM | IC50 (Mu-type opioid receptor [7]): 0.02 nM | remaining at […] [1]: 85%

Cc1cc(O)cc(C)c1C[C@H](N)C(=O)N[C@@H]1CCCCNC(=O)C[C@@H](C(N)=O)NC(=O)[C@H](c2ccc(C(F)(F)F)cc2)NC(=O)[C@H](c2ccccc2)NC1=O
remaining at […] [1]: 93%

C[C@@H](NC(=O)[C@@H](N)Cc1ccc(O)cc1)C(=O)N[C@@H](Cc1ccccc1)C(=O)NCC(=O)N[C@@H](Cc1ccc(O)cc1)C(=O)N1CCC[C@H]1C(N)=O
Activity (Rattus norvegicus): 25% | Ki (Mu-type opioid receptor [8]): 1.6 nM | Ki [9]: 320 nM | IC50 (Mu-type opioid receptor [2]): 2.7 nM | IC50 (Mu-type opioid receptor [10]): 43.2 nM

NC(=O)[C@@H]1CC(=O)NCCCC[C@@H](NC(=O)[C@@H](N)Cc2ccc(O)cc2)C(=O)N[C@@H](c2ccccc2)C(=O)N[C@@H](c2ccc(F)cc2F)C(=O)N1
remaining at […] [1]: 93%

C=C(C(=O)O)[C@@H](N)c1ccco1
half-life [11]: ≥ 5 h | half-life [12]: ≥ 5 h

N=C(N)NCCC[C@@H](NC(=O)[C@@H](N)Cc1ccc(O)cc1)C(=O)N[C@@H](Cc1ccccc1)C(=O)NCC(=O)N[C@@H](Cc1ccc(O)cc1)C(=O)N1CCC[C@H]1C(N)=O
IC50 (Mu-type opioid receptor [2]): 190 nM | ED50 (Mus musculus [3]): 12.5 pmol

C=C(C(N)=O)[C@@H](NC(=O)[C@H](Cc1ccccc1)NC(=O)[C@@H](C)N(C)C(=O)[C@@H](N)Cc1ccc(O)cc1)c1ccco1
Ki (Mu-type opioid receptor [13]): 0.45 nM | Ki [14]: 4510 nM | EC50 (Mu-type opioid receptor [15]): 4.11 nM | Emax (Mu-type opioid receptor [16]): 87.7%

Cc1ccc([C@@H]2NC(=O)[C@H](NC(=O)[C@@H](N)Cc3c(C)cc(O)cc3C)CCCCNC(=O)C[C@@H](C(N)=O)NC(=O)[C@H](c3ccccc3)NC2=O)cc1
EC50 (Mu-type opioid receptor [4]): 2.82 nM | ED50 (Mus musculus [5]): 0.39 µg | IC50 [6]: 156 nM | IC50 (Mu-type opioid receptor [7]): 1.43 nM | remaining at […] [1]: 85%

C[C@@H](NC(=O)[C@@H](N)Cc1ccc(O)cc1)C(=O)N[C@@H](Cc1ccccc1)C(=O)NCC(=O)N[C@@H](Cc1ccc(O)cc1)C(=O)N1CCC[C@H]1C(=O)N[C@@H](CO)C(N)=O
IC50 (Mu-type opioid receptor [2]): > 4000 nM | IC50 (Mu-type opioid receptor [10]): > 15000 nM

C=C(C(N)=O)[C@@H](NC(=O)[C@H](Cc1c[nH]c2ccccc12)NC(=O)[C@@H](C)N(C)C(=O)[C@@H](N)Cc1c(C)cc(O)cc1C)c1ccccc1
Ki (Mu-type opioid receptor [13]): 0.032 nM | Ki [14]: 37.2 nM | EC50 (Mu-type opioid receptor [15]): 0.004 nM | Emax (Mu-type opioid receptor [16]): 98.1% | half-life [11]: ≥ 5 h | half-life [12]: ≥ 5 h

NC(=O)[C@@H]1CC(=O)NCCCC[C@@H](NC(=O)[C@@H](N)Cc2ccc(O)cc2)C(=O)N[C@@H](c2ccccc2)C(=O)N[C@@H](c2ccc(C(F)(F)F)cc2)C(=O)N1
remaining at […] [1]: 93%

Cc1cc(O)cc(C)c1C[C@H](N)C(=O)N[C@@H]1CCCCNC(=O)C[C@@H](C(N)=O)NC(=O)[C@H](c2ccc(F)cc2F)NC(=O)[C@H](c2ccccc2)NC1=O
remaining at […] [1]: 93%

Cc1cccc([C@@H]2NC(=O)[C@H](NC(=O)[C@@H](N)Cc3c(C)cc(O)cc3C)CCCCNC(=O)C[C@@H](C(N)=O)NC(=O)[C@H](c3ccccc3)NC2=O)c1
EC50 (Mu-type opioid receptor [4]): 2.95 nM | ED50 (Mus musculus [5]): 0.22 µg | IC50 [6]: 116 nM | IC50 (Mu-type opioid receptor [7]): 0.8 nM | remaining at […] [1]: 85%

C=C(C(N)=O)[C@@H](NC(=O)[C@H](Cc1ccccc1)NC(=O)[C@@H](C)N(C)C(=O)[C@@H](N)Cc1ccc(O)cc1)c1ccccc1
Ki (Mu-type opioid receptor [13]): 0.61 nM | Ki [14]: 4280 nM | EC50 (Mu-type opioid receptor [15]): 4.39 nM | Emax (Mu-type opioid receptor [16]): 80.4%

Cc1ccccc1[C@@H]1NC(=O)[C@H](c2ccccc2)NC(=O)[C@H](NC(=O)[C@@H](N)Cc2c(C)cc(O)cc2C)CCCCNC(=O)C[C@@H](C(N)=O)NC1=O
EC50 (Mu-type opioid receptor [4]): 5.62 nM | ED50 (Mus musculus [5]): 0.05 µg | IC50 [6]: 2.05 nM | IC50 (Mu-type opioid receptor [7]): 0.04 nM | remaining at […] [1]: 85%
